We go through three compounds from article PMC9965125, “New NSAID Conjugates as Potent and Selective COX-2 Inhibitors: Synthesis, Molecular Modeling and Biological Investigation” (Molecules, 2023).

In one series the test system is hot plate latency. Nature of the series: hot plate assay (central analgesic). In kind it is in vivo, mice. The settings on record: for % Protection / Latency Period ± SE: 10 mg/kg indomethacin mol equivalent i.p.; for Latency Period ± SE: cutoff 15 sec. As to the method:
The % potency was calculated by equ. (4) (Table 2). […]
% Potency = % protection of the tested compound x 100 ……. (4) […]
Central analgesic (hot plate) testing
The standard hot plate technique was undertaken by in vivo standard hot plate test [ 1,2]. […]
by placing them on a hot plate maintained at 55 ± 1 °C, 30 min. […]
suspended in sterile/distilled water by the ai d of two drops of Tween 80, and recording the reaction time in seconds for forepaw licking or jumping. The control group animals were given sterile/distilled water only with few drops of Tween 80. The maximum cutoff time was chosen as 15 sec. to prevent tissue damage. Response latencies were measured 30, 60, 90 and 120 min. after the application. The % protection was calculated by equ. ( 5) where, T1, T0 are the latency time mean of the tested compound and control group, respectively (Table 3).
In general terms: In hot-plate and tail-flick tests a longer latency is read as antinociception.

In series [1] the test system is LPS-stimulated RAW264.7 macrophages. Nature of the series: NO production of LPS-induced RAW264.7 (Griess method). It is filed as cell-based. The settings on record: 40 μg/mL; LPS 10 ng/mL; LPS only 22 μM, baseline 12.8 μM. A general note: Griess reagent forms a coloured azo dye with nitrite.
Series [2] concerns carrageenan induced paw edema. In words: carrageenan-induced rat paw edema. It is filed as in vivo. The settings on record: for % Inhibition of Edema ± Standard Error / Mean Edema Thickness: 10 mg/kg indomethacin mol equivalent i.p.; for Mean Edema Thickness: ± standard error. As to the method:
Anti-inflammatory activity screening
The anti-inflammatory activity of the tested compounds was determined in-vivo by the acute carrageenan induced paw edema standard method in rats. Adult Wister rats of either sex (pregnant female animals were excluded) weighing 120–150 g were divided into 19 groups of 6 animals each. The tested compounds dissolved in DMSO, at a dose of 10 mg kg-1 (rat body […]
inflammation. The control group was given DMSO only. Paw edema was induced by subcutaneous injection of freshly prepared 1% solution of carrageenan in saline (0.9%, 0.1 ml per rat) into subplantar tissue of the right hind paw of rats. The thickness of the paw was measured (in mm) after successive time intervals (1, 2, 3, 4 and 24 h) and compared with the initial hind paw thickness of each rat for determining the edema thickness. Data were collected, checked, revised and analyzed (SPSS 16). Quantitative variables from normal distribution were expressed as means ± SE “standard error”. The anti-inflammatory activity was expressed as percentage inhibition of edema thickness in treated animals in comparison with the control group according to eqn. (1) […]
% Inhibition of edema= Vc-Vt x 100 … .. (1)
Where, Vc and Vt are the means of edema paw thickness for the control and tested compound treated animal groups, respectively.
The potency of the tested compounds was expressed as % inhibition of edema thickness […]
% Potency = % inhibition of edema for the tested compound treated group x 100 … . (2)

In the next series the test system is TNF-α mRNA. The settings on record: 40 μg/mL; in comparison to LPS-stimulated cells only.
The subject of the next series is iNOS mRNA. The settings on record: 40 μg/mL; in comparison to LPS-stimulated cells only.
For the next series, the system named is mice. Nature of the series: toxicological bioassay. In kind it is in vivo. The settings on record: five times the anti-inflammatory dose (50 mg/kg indomethacin mol equivalent); recorded 24 h post-administration. How it is done:
Five times the anti-inflammatory dose was orally administrated. […]
5a, 5b, 5d, 5e) was determined utilizing the standard method in mice. Albino mice weighing 20–25 g were divided into 6 groups of 6 mice each. Administrations of the tested compounds dissolved in distilled water by the aid of few drops of Tween 80 were given intraperitoneally in 50 […]
inflammatory dosage). The control group was given water only with few drops of Tween 80. The toxic symptoms and mortality rates were recorded 24 h post -administration in each group.

Another series deals with IL-6 mRNA. The settings on record: 40 μg/mL; in comparison to LPS-stimulated cells only.
The subject of another series is gastric mucosa. The settings on record: both, albino, mouse, in vivo, 3 days; for % Incidence of Ulcer Divided by 10 / Average Severity of Ulcer / Average of Ulcer Number / Number of Animals with Ulcer: po, 10 mg/kg. How it is done:
The ulcerogenic liability was determined in albino mice obeying the standard method.
Animals of either sex (pregnant females were excluded) weighing 20 –25 g were divided into 8 groups of 6 animals each. The animals fasted 18 h before drug administration.
80 administered orally for three successive days to fasted animals at a dose of 10 mg kg-1 (animal […]
The control group animals were given water only with few drops of Tween 80. The animals were sacrificed by cervical dislocation and the stomach was removed, opened along the greater curvature and rinsed with saline. The gastric mucosa was examined with a magnifying lens (10x) for the presence of lesions and ero sions. The ulcer index was calculated (Table 4) and the degree of ulcerogenic effect was expressed in terms of.
1. The percentage incidence of ulcers divided by 10.
2. Average number of ulcers per stomach.
3. Average severity of ulcers.
The ulcer index is the value that resulted from the sum of the above three values. […]

Series [3] has as its system acetic acid-induced abdominal writhing. Nature of the series: acetic acid-induced abdominal writhing assay (peripheral analgesic). It is filed as in vivo, mice. The settings on record: for % Inhibition/Protection / Writing Reflex ± SE: 10 mg/kg indomethacin mol equivalent i.p.; for Writing Reflex ± SE: number of writhing counted for 30 min; for Potency: % inhibition/protection compared to indomethacin. How it is done: Peripheral analgesic testing
Peripheral analgesic activity was measured by the standard acetic acid-induced writhing […]
One hour after intraperitoneally (i,p.) administration of 10 mg kg−1 (mice body weight) […]
distilled/sterile water by the aid of two drops of Tween 80, each mouse was injected with 0.1 ml of 1% acetic acid solution i.p. The control group animals were given sterile/distilled water only with few drops of Tween 80. Starting 5 min after the acetic acid injection, the number of muscular contractions in each mouse was counted for 30 min. A significant reduction in the number of writhing by any test compound as compared to control animals was considered as a positive analgesic response. Percentage protection was calculated according to equ. (3), where n stands for the average number of writhing in the control group and n' is the average number of writhing in the treated group. The % potency was calculated by equ. (4) (Table 2).
% Inhibition/protection = n−n′ x100 … . (3)
(In general: In writhing tests, fewer writhes than in controls are read as antinociception.)

Values joined by “and” are separate entries in the source; they are usually repeats but may differ in a detail not shown here. Equal values may be shown once.

Description for IL-6 mRNA: (§1) For this purpose, the mRNA levels of IL-6, TNF-α, and iNOS were measured using real-time qPCR (RT-qPCR).
(§2) Treatment of LPS-stimulated RAW264.7 macrophages was done with 40 µg/mL of the isolated
(§3) Evaluation of inflammatory mRNA expression levels
(§4) Inflammatory mRNA expression levels were evaluated using RT-qPCR (Applied Biosystems, CA, USA). Total RNA was extracted by lysing RAW264.7 cells using Qiazol Lysis Reagent. The extracted RNA was used to synthesize cDNA using RevertAid First Strand cDNA synthesis kit according to manufacturer’s protocol. The cDNA was then added with forward and reverse
(§5) primers, nuclease free water and maxima SYBR green mix (Thermo Fisher Scientific, MA, USA).
(§6) The inflammation-related genes of mRNA expression levels are as follows: IL-6, TNF-α, and
(§7) iNOS. All expression was normalized to GAPDH (endogenous control) and relative fold mRNA
(§8) expression levels were calculated using the comparative 2 −ΔΔCT method. The PCR reaction consists
(§9) of initiation stage at 95 °C for 10 min, after that 40 PCR cycles of d enaturation stage for 15 s at 95
(§10) °C and annealing and extension for 1 min at 60 °C.
Description for TNF-α mRNA: as §1, §2, §3, §4, §5, §6, §7, §8, §9, §10
Description for iNOS mRNA: as §1, §2, §3, §4, §5, §6, §7, §8, §9, §10

Take `CC(C)Cc1ccc(C(C)C(=O)OCc2cn(-c3ccccc3Cl)nn2)cc1` (stereo not drawn) [Compound 5a, (1-(2-Chlorophenyl)-1H-1,2,3-triazol-4-yl)methyl 2-(4-isobutylphenyl)propanoate]: the “% Protection” value with hot plate latency (after 30 min) is 79.2%; with hot plate latency (after 60 min) it was 71.5%; with hot plate latency (after 90 min), 34.5%; with hot plate latency (after 120 min), 54.5%. In addition, the “Latency Period ± SE” value in the series on hot plate latency (after 30 min) is 11.97 ± 2.5 s; in the series on hot plate latency (after 60 min), 12.47 ± 2.0 s; with hot plate latency (after 90 min) it was 11.98 ± 2.6 s; in the series with hot plate latency (after 120 min) it was 13.92 ± 2.3 s. Besides, in series [1], the “LPS-stimulated NO production (nitrite)” value is 17.7 µM. Besides, the “% Inhibition of Edema ± Standard Error” value in series [2] (1 h) is 29.7 ± 1.1%; in series [2] (2 h) it was 31.3 ± 0.8%; in series [2] (3 h, 10 mg/kg), 95.4% and 95.4 ± 0.7%; in [2] (4 h), 45.7 ± 1.4%; in series [2] (24 h, 10 mg/kg) it was 22.5% and 22.5 ± 0.9%. The “Mean Edema Thickness” value in [2] (3 h) turned out to be 0.033 ± 0.01 mm; in [2] (24 h), 0.713 ± 0.02 mm. Also, in the series on TNF-α mRNA, the “reduction in TNF-α mRNA levels” value is 88%. For the same compound, in the series with iNOS mRNA, the “reduction in iNOS mRNA levels” value is 34%. In addition, in the series on mice, the “toxic symptoms or mortality” value was “No toxic symptoms or mortality”. The “reduction in IL-6 mRNA levels” value in the series with IL-6 mRNA came to 61.3%. In the series on gastric mucosa, the “Ulcer Index” value turned out to be 0. In addition, in the series with gastric mucosa, the “% Incidence of Ulcer Divided by 10” value is given as 0. In the series with gastric mucosa, the “Average Severity of Ulcer” value was found to be 0. The “Average of Ulcer Number” value with gastric mucosa came out at 0. Further, the “Number of Animals with Ulcer” value in the series with gastric mucosa is 0. Besides, the “% Inhibition/Protection” value in [3] amounted to 83.3%. In series [3], the “Writing Reflex ± SE” value was found to be 6.7 ± 0.7.

With `CC(C)Cc1ccc(C(C)C(=O)OCc2cn(-c3ccc(Cl)cc3)nn2)cc1` (stereo not drawn) [Compound 5b, (1-(4-Chlorophenyl)-1H-1,2,3-triazol-4-yl)methyl 2-(4-isobutylphenyl)propanoate], the “% Protection” value in the series on hot plate latency (after 30 min) was determined as 84.1%; in the series with hot plate latency (after 60 min) it was 41.3%; in the series with hot plate latency (after 90 min), 25.0%; in the series with hot plate latency (after 120 min), 27.1%. For the same compound, the “Latency Period ± SE” value was 12.30 ± 1.6 s with hot plate latency (after 30 min), 10.27 ± 1.9 s in the series with hot plate latency (after 60 min), 11.14 ± 1.5 s with hot plate latency (after 90 min) and 11.45 ± 2.0 s with hot plate latency (after 120 min). In [1], the “LPS-stimulated NO production (nitrite)” value was determined as 4.88 ± 1 µM. In addition, the “% Inhibition of Edema ± Standard Error” value is 58.3 ± 0.7% in series [2] (1 h); 69.6 ± 2.1% in [2] (2 h); 94.5% and 94.5 ± 0.4% in [2] (3 h, 10 mg/kg); 66.8 ± 1.6% in series [2] (4 h); 8.4 ± 1.2% in series [2] (24 h). For the same compound, the “Mean Edema Thickness” value in series [2] (3 h) came out at 0.040 ± 0.01 mm. The “reduction in TNF-α mRNA levels” value with TNF-α mRNA is reported as 82%. Also, in the series with mice, the “toxic symptoms or mortality” value is given as “No toxic symptoms or mortality”. Moreover, in the series with IL-6 mRNA, the “reduction in IL-6 mRNA levels” value was 42%. The “Ulcer Index” value with gastric mucosa was 0. Moreover, the “% Incidence of Ulcer Divided by 10” value in the series on gastric mucosa is 0. For the same compound, the “Average Severity of Ulcer” value in the series with gastric mucosa was 0. In addition, the “Average of Ulcer Number” value in the series with gastric mucosa amounted to 0. Also, the “Number of Animals with Ulcer” value in the series with gastric mucosa is reported as 0. In addition, the “% Inhibition/Protection” value in series [3] amounted to 87.5%. For the same compound, the “Writing Reflex ± SE” value in series [3] is on record as 5.0 ± 0.9.

For `COc1ccc2c(c1)c(CC(=O)O)c(C)n2C(=O)c1ccc(Cl)cc1` [Indo, Indomethacin, reference compound], in the series with hot plate latency (after 30 min), the “% Protection” value came to 87.1% and the “Latency Period ± SE” value was determined as 12.50 ± 2.0 s. In addition, in the series on hot plate latency (after 60 min), the “% Protection” value was determined as 80.9% and the “Latency Period ± SE” value came out at 13.15 ± 1.6 s. Further, in the series with hot plate latency (after 90 min), the “% Protection” value is reported as 57.9% and the “Latency Period ± SE” value is 14.07 ± 1.2 s. Further, in the series with hot plate latency (after 120 min), the “% Protection” value came to 56.5% and the “Latency Period ± SE” value was 14.10 ± 1.9 s. Also, in the series on hot plate latency (at 120 min compared to indomethacin), the Potency came to 100. The “% Inhibition of Edema ± Standard Error” value in [2] (24 h, 10 mg/kg) is 12.0 ± 2.1%. In series [2] (24 h, listed as indomethacin, 10 mg/kg), the “% Inhibition of Edema ± Standard Error” value was 12.0%. Besides, the “% Potency” value in series [2] (% inhibition of edema thickness relative to indomethacin at 3 h) was 100%. For the same compound, in the series on gastric mucosa, the “% Incidence of Ulcer Divided by 10” value stood at 10, the “Average Severity of Ulcer” value is listed as 1.67, the “Average of Ulcer Number” value worked out at 2 and the “Number of Animals with Ulcer” value is 6/6. In addition, in [3], the “% Inhibition/Protection” value amounted to 71.8%, the Potency is 100.0% and the “Writing Reflex ± SE” value is listed as 11.3 ± 1.6. This compound also returned a Potency in [3] (listed as indomethacin) of 100%.
